In brackets after ≈: the same amount, converted by molar mass. Where two headings read alike, the source gives them in different places. Marks after values point to notes of the source that are not given here.
Assays:
[1] = cited from earlier work; for SPF: commercial organic UV-filters, lower limit for commercial sunscreen 6
[2] = In vitro screening method for sun protection indexes (SPF, PF-UVA, λc, ISP, SUI) from UV absorbance 290–400 nm; assay type: physicochemical
Experimental: Photoprotective effectiveness is evaluated through photoprotective indexes such as SPF, PF-UVA, and critical wavelength (λc) (an indicator of the filter capacity to protect in the UVA range), as well as Spectral Uniformity Index (SUI) and Ideal Spectral Profile (ISP), two indexes recently defined by Diffey to focus on protection across the entire ultraviolet spectrum. They calculate the goodness of fit of the spectral profile to the ideal flat profile. SPF and PF-UVA measure the filter efficacy against UVB or UVA. SPF measurement is currently determined in vivo through determination of the erythemal reaction on human volunteers. For economical and ethical reasons, many alternative in vitro methods have been developed to measure SPF and also PF-UVA, λc or SUI and ISP. Unfortunately, despite concerted efforts around the globe between different commissions, none of them guarantees a good correlation with in vivo measurements. Moreover, all these in vitro methods require an amount of active raw material generally ≥100 mg and prevent the evaluation of compounds in minute amounts. The photoprotective indexes have been then determined thanks to a new method (see SM) especially developed to cope with the low availability of the compounds. Twelve commercial organic UV-filters, the photoprotective indexes of which were published (Table S3 in SM), encompassing a 1–24 SPF range were used for the development. It can be noted that the SPF values of benzophenone-3 (oxybenzone), PEG-25 PABA, homosalate, polysilicone 15 and 4-Methylbenzylidene Camphor are under 6, the value commonly accepted as the lower limit for commercial sunscreen. However, the efficient value of commercialized emulsion can be explained by the formulation of several organic and mineral filters. The similarity of the results (r^2 = 0.98 for published SPF vs. herein SPF, see Figure S1 in SM) supported the new method validity. Routinely, ethylhexyl methoxycinnamate (OMC) was used as positive control. Based on the SPF, λc, PF-UVA, SUI and ISP values obtained with marketed organic filters and on their UV range protection (Table S3 in SM), a decision tree was built to categorize the filters (Figure 3). Considering the herein SPF values of the filters cited above (around 2), the first condition to select a candidate is SPF > 2. Restricted UVA or UVB filters can be discriminated through the λc value (>370 nm) and PF-UVA (>2) for UVA and SUI (>1.2) and ISP (<90) for UVB. A large spectral protection (UVA + UVB) could be evaluated by combining the four criteria.
A new in vitro screening method based on spectrophotometric data was used to evaluate sun protection indexes such as SPF, PF-UVA, the critical wavelength λc, ISP and SUI. Its development was first conducted in a cuvette using twelve commercial organic filters encompassing a large range of SPF values (1 < SPF < 25) and then transposed in a 96-wells plate. Following the International recommendations, maximal concentrations never overtook 10% whatever the commercial filters or the lichens extracts or compounds considered. This new method faces some product availability limitation, which is a common shortcoming for natural products or metabolites (see all development in SM).
The scheme of solution preparation to record the experimental values is depicted in Figure 9. The sample (S4) was prepared at 0.02 mg/mL from stock solutions of filter candidate (S2) and of emulsion (S1) (See emulsion preparation in SM) taking into account the maximal concentration. The experimental absorbances Aλ were recorded in the 290–400 nm range versus a blank solution (S3) in a cuvette with a double beam spectrophotometer or in a 96-wells plate filled with 180 µL of solution by well. […] The diagram is described for final volumes of 50 mL, 100 µL, 25 mL and 25 mL for S1, S2, S3 and S4 solutions, respectively. Smaller volumes can easily be prepared. Solutions S2 and S4 were prepared in duplicate. […]

HaCaT cells [3] = assay: Cytotoxic and photocytotoxic activities before and after UVA irradiation; assay type: cell-based, human; conditions: for IC50: Homo sapiens, light or radiation study, HaCaT cells; for Photo-Irritancy Factor (PIF), formal PIF: formal PIF = *1.0 = Cmax(−UV)/Cmax(+UV)
Experimental: Briefly, 100 µL per well of a cell suspension of HaCaT cells (ATCC) at 120,000 cells/mL were maintained in a RPMI culture medium with 5% of calf serum at 37 °C under 5% CO2 for 24 h for formation of monolayers. At t = 24 h, two 96-well plates per test chemical were preincubated for 1 h with seven different concentrations of the tested compounds and extract (ranging from 1 µg/mL to 200 µg/mL). Chlorpromazine was used as the positive control. To allow results comparison and due to the presence of extract, concentrations are expressed in µg/mL.
For both assays, each concentration and all tests were done in triplicate and the results averaged. The percentage inhibition at steady state for each dilution was used to calculate the IC50 values.

[4] = NBT assay (superoxide anion scavenging, non-enzymatic NADH/PMS); assay type: biochemical
Experimental: Measurements of superoxide anion scavenging activity in 96-well microplates was based on the non-enzymatic method previously described with some modifications. The reaction mixture in the sample wells consisted of NADH (78 µM), nitro-blue tetrazolium (NBT) (50 µM), phenazine methosulfate (PMS) (10 µM), and lichen compounds (10, 20, 40, 80 µg/mL). The reagents were dissolved in 16 mM tris-hydrochloride buffer, at pH = 8 except for all the lichen compounds/extract which were dissolved in DMSO. After 5 min of incubation at room temperature, the spectrophotometric measurement was performed at 560 nm against blanks (without PMS nor sample).
(§1) For both assays, each concentration and all tests were done in triplicate and the results averaged. Ascorbic acid was used as a positive control. The percentage inhibition at steady state for each dilution was used to calculate the IC50 values. This gave the amount of antioxidant required (measured as the concentration of the stock solution added to the reaction mixture) to either scavenge 50% of O2^− or 50% of DPPH radicals: the lower the values, the higher the scavenging activity towards O2^−.

[5] = Stability of photoprotection indexes after UVA or UVB irradiation; assay type: physicochemical; conditions: for photostability: UVA and UVB
Experimental: One hundred eighty microliters of solution in 96-well plates were irradiated by UVA (2 J/cm^2) or UVB ([…]). The absorbances were then recorded and photoprotective indexes were calculated as described above. The stability was evaluated by comparison between indexes described previously (Section 3.5.1) and obtained before and after irradiation. Two independently prepared solutions were studied and OMC was used as a positive control.

HaCaT cells [6] = conditions: human
Experimental: For each drug ratio (Tables S7 and S8 in SM), the cytotoxicity was evaluated as previously described (2.7.1).
For both assays, each concentration was done in triplicate and the results averaged.

[7] = NBT antioxidant assay of compounds in combination (isobologram, combination index); assay type: biochemical
Experimental: For each drug ratio (Tables S5 and S6 in SM), the antioxidant inhibition was evaluated as previously described (2.6.1).
The antagonistic, synergistic or additive effect of the combination depends on the combination index value (CI) (Equation (1)). […] (IC50)X is the value of the IC50 of compound X alone.
For both assays, each concentration and all tests were done in triplicate and the results averaged.

[8] = DPPH assay (reducing activity); assay type: biochemical
Experimental: Reducing activity of compounds 1–3 and crude extract on the 1,1′-diphenyl-2-picrylhydrazyl free radical (DPPH) and scavenging activity on superoxide anion were measured as previously described. Briefly, the scavenging activity of the lichen compounds on DPPH was measured using the Matsukawa method with some modifications. A reaction mixture containing 100 µL of DPPH (0.5 mM) in methanol and 10 µL of the lichen compound solutions in DMSO to give final concentrations of 19, 56, 167 and 500 µg/mL per well, was distributed in each microplate well. To allow results comparison and due to the presence of extract, concentrations are expressed in µg/mL. The absorbances were recorded at 540 nm after 30 min.
as §1

[9] = with UVA irradiation, read-out: IC50 ± SD With Irradiation
[10] = without irradiation, read-out: IC50 ± SD Without Irradiation
[11] = before irradiation, new in vitro method

Row | Compound | NBT Assay IC50 ± SD [4] | ISP (Ideal Spectral Profile) ([2]; before irradiation) | PF-UVA ([2]; before irradiation) | SUI (Spectral Uniformity Index) ([2]; before irradiation) | DPPH Assay IC50 ± SD [8] | SPF [1] | IC50 (HaCaT cells [3]; [9]) | IC50 (HaCaT cells [3]; [10]) | also measured
1 | CCCCC(CC)COc1ccc(-c2nc(-c3ccc(OC)cc3)nc(-c3ccc(OCC(CC)CCCC)cc3O)n2)c(O)c1 (stereo not shown) [anisotriazine, Bis-Ethylhexyloxyphenol Methoxytphenyl Triazine, reference compound] |  |  |  |  |  |  |  |  | published SPF ([1]; reference value, ref 6–8 of supplement): 23.9; SPF ([2]; cuvette, dissolved in DMSO): 1.8
2 | PEG-25 PABA |  |  |  |  |  | under 6 |  |  | 
3 | CN(C)CCCN1c2ccccc2Sc2ccc(Cl)cc21 [Chlorpromazine, reference compound] |  |  |  |  |  |  | 2.4 ± 0.3 µg/mL (≈ 7.53 µM) | 13.2 ± 1.7 µg/mL (≈ 41.4 µM) | Photo-Irritancy Factor (PIF) (HaCaT cells [3]; PIF = IC50(−UV)/IC50(+UV), PIF < 5 no phototoxic potential): 5.5 ^d
4 | O=C1O[C@H]([C@@H](O)CO)C(O)=C1O [Ascorbic acid, reference compound] | 3.0 ± 0.4 µg/mL |  |  |  | 12.5 ± 0.5 µg/mL |  |  |  | 
5 | Cc1ccc(/C=C2/C(=O)C3(C)CCC2C3(C)C)cc1 (stereo not shown) [4-Methylbenzylidene Camphor] |  |  |  |  |  | under 6 |  |  | 
6 | COc1ccc(C(=O)c2ccccc2)c(O)c1 [benzophenone-3 (oxybenzone), benzophenone-3] |  |  |  |  |  | under 6 |  |  | 
7 | CC1CC(OC(=O)c2ccccc2O)CC(C)(C)C1 (stereo not shown) [homosalate] |  |  |  |  |  | under 6 |  |  | 

Second part, led by results:

Row | NBT Assay IC50 ± SD [4] | ISP (Ideal Spectral Profile) ([2]; before irradiation) | PF-UVA ([2]; before irradiation) | SUI (Spectral Uniformity Index) ([2]; before irradiation) | DPPH Assay IC50 ± SD [8] | Compound | SPF [1] | IC50 (HaCaT cells [3]; [9]) | IC50 (HaCaT cells [3]; [10]) | also measured
8 | 30.0 ± 3.0 µg/mL | 19% | 3.9 | 7.6 | 55.0 ± 8.0 µg/mL | COC(=O)/C(=C1/OC(=O)C(c2ccccc2)=C1O)c1ccccc1 [Vulpinic acid, vulpinic acid] |  | > 200 µg/mL | > 200 µg/mL | photostability [5]: photostable in the UVA and UVB ranges; Percentage of cytotoxicity (HaCaT cells [6]; 5 µg/mL): 0.0%; Percentage of cytotoxicity (HaCaT cells [6]; 20 µg/mL): 0.0%; Superoxide anion scavenging activity (% inhibition) ([7]; Table S6, vulpinic acid alone 7.5 µg/mL): 22.0%; Superoxide anion scavenging activity (% inhibition) ([7]; Table S6, vulpinic acid alone 15.0 µg/mL): 30.0%; Superoxide anion scavenging activity (% inhibition) ([7]; Table S6, vulpinic acid alone 22.5 µg/mL): 42.0%; Superoxide anion scavenging activity (% inhibition) ([7]; Table S6, vulpinic acid alone 30.0 µg/mL): 50.0%; Photo-Irritancy Factor (PIF), formal PIF (HaCaT cells [3]): *1.0 ^c
9 |  | 105% | 1.6 | 1.1 |  | CCCCC(CC)COC(=O)C=Cc1ccc(OC)cc1 (stereo not shown) [OMC, ethylhexyl methoxycinnamate, reference compound] |  |  |  | critical wavelength (λc) ([2]; before irradiation): 330 nm; SPF [2, 11]: 10.4; SPF ([2]; cuvette, dissolved in DMSO): 10.1; SPF ([2]; cuvette, dissolved in THF): 9.6; decrease in indexes after irradiation ([5]; UVA or UVB irradiation): 25%
10 | 70.0 ± 23.0 µg/mL | 61% | 1.8 | 1.9 | 80.0 ± 8.0 µg/mL | COC(=O)/C(=C1/OC(=O)C(c2ccc(OC)cc2)=C1O)c1ccccc1 [Pinastric acid, pinastric acid] |  | > 200 µg/mL | > 200 µg/mL | critical wavelength (λc) ([2]; before irradiation): 386 nm; SPF [2, 11]: 4.1; photostability [5]: photostable in the UVA and UVB ranges; Superoxide anion scavenging activity (% inhibition) ([7]; Table S7, pinastric acid alone 17.5 µg/mL): 25.0%; Superoxide anion scavenging activity (% inhibition) ([7]; Table S7, pinastric acid alone 35.0 µg/mL): 37.0%; Superoxide anion scavenging activity (% inhibition) ([7]; Table S7, pinastric acid alone 52.5 µg/mL): 44.0%; Superoxide anion scavenging activity (% inhibition) ([7]; Table S7, pinastric acid alone 70.0 µg/mL): 50.0%; Photo-Irritancy Factor (PIF), formal PIF (HaCaT cells [3]): *1.0 ^c
